From patent US9187784B2, “EphA4 is a disease modifier in motor neuron disease” (VIB VZW, priority 2011, dated 2015) come the findings set out here.

One data set concerns RTK1. Description: RTK1 expression by Western blot and whole-mount immunostaining of zebrafish embryos. Particulars: Western blot of zebrafish embryos and whole-mount immunostaining of rhombomeres, 4.5 ng. It counts as in vivo. From the text: FIG. 1: EphA4 knockdown rescues mutant SOD1-induced motor axonopathy. […] Abnormal branching is indicated with arrowhead. Y-axes show motor axon length of zebrafish embryos expressing wild-type SOD1 (black bar, Panels D-G) or mutant SOD1 (white bar, Panels D-G). Knockdown of RTK2 in SOD1A4V- (Panel D), SOD1G93A- (Panel E) and SOD1G37R- (Panel F) expressing fish was established by co-injection of increasing amounts of atg-RTK2 morpholino (shaded bars). RTK1 expression was inhibited in SOD1A4V-expressing fish by co-injection of atg-RTK1 morpholino (shaded bars, Panel G). Ctr-RTK2 and ctr-RTK1 were used as control. ANOVA and Bonferroni's multiple comparison tests were used for statistical analysis. […]
Mice spinal cord and 30 hpf old, dechorionated and deyolked zebrafish embryos, and NSC-43 cells were homogenized in buffer: 50 mM Triz/HCl, pH 7.5, 120 mM NaCl, 1% TRITON® X-100, 1 mM sodium orthovanadaat, 2 mM PMSF, complete protease inhibitor (Roche). Protein concentration was determined using the micro-BCA protein assay reaction kit 207 (Pierce). […]

The test system of data set [1] is non-transgenic or wild-type SOD1-expressing fish. In words: axonal and total body length in non-transgenic or wild-type SOD1-expressing fish. Format: in vivo. Particulars: zebrafish, average ± s.e.m. Here is the method: Y-axes show motor axon length of non-transgenic (black bar) or SOD1WT-expressing (white bar) zebrafish embryos, injected with either atg-RTK2 (shaded bars, Panel A) or atg-RTK1 morpholino (shaded bars, Panel B). Ctr-RTK2 and ctr-RTK1 were used as controls. Error bars are s.e.m.
To identify disease-modifying genes in ALS in an unbiased way, knockdown screening was performed in the mutant SOD1 zebrafish model (reference 13), using a library of 303 translation blocking morpholinos (atg-mo), of which 58 were targeting genes presumed to be neuronally expressed (according to the NCBI database) and 245 randomly chosen targeting genes. […] The morpholino yielding the highest rescue in two separate experiments was studied further. It targets zebrafish receptor tyrosine kinase 2 (RTK2, also known as epha4b), which has 67% identity and 80% homology to the human orthologue EPHA4. Knockdown of RTK2 in fish expressing mutant SOD1 completely and dose-dependently rescued the motor axonopathy (both axonal length and aberrant branching) caused by three different SOD1 mutations: A4V, G93A and G37R (FIG. 1, Panels A-F; Table 2). […] Receptor tyrosine kinase 1 (RTK1, also known as epha4a), the fish paralogue of RTK2, has 83% identity and 92% homology to human EPHA4. RTK1 knockdown was dose-dependently and equally protective as RTK2 knockdown (FIG. 1, Panel G; Table 4). […]

As to “5′-CTGTGAACACAAGCGCAGCCATTGG-′3 (all phosphorodiamidate morpholino (PMO)) [atg-RTK1]”, in the data set on RTK1, the RTK1 expression entry was “efficiently blocked RTK1 expression”. Also, in data set [1], the body length worked out at 2.61±0.01 mm.
